Measurements published in patent US4209517A, “α-Ethylenic alcohols and ketones, their preparation, and their use as medicaments” (Unicler, priority 1978, dated 1980).

Tests used:
[1] = system: blepharospasm caused by reserpine; assay: Antagonism to reserpine (blepharospasm); type: in vivo; set-up: key: The inhibition of blepharospasm is marked from 0 to +++; ±: The inhibition of blepharospasm is marked from 0 to +++; The inhibition of blepharospasm is marked from 0 to +++; The inhibition of blepharospasm is marked from 0 to +++; conditions: male Swiss mice, before reserpine 5 mg/kg IP
Experimental: (Chen G., and Bohner B., (1961) J. pharmacol. Exptl. Therap. 131, 179).
Reserpine administered to mice in a dosage of 5 mg/kg intraperitoneally produces in the first few hours a more or less complete closure of the eyelids in most of the animals. The administration of certain products inhibits the blepharospasm caused by reserpine.
Male Swiss mice are distributed into batches of 10 mice and each experiment involves at least 3 batches:
a control batch that receives only the solvent and reserpine
a batch treated with a reference product: we selected Imipramine
a treated batch receiving the product being tested.
The experimental products are administered intraperitoneally either 30 minutes or 2 hours before the intraperitoneal injection of reserpine at a dosage of 5 mg/kg, in order to study their activity as a function of time.
The degree of ptosis for each eye and each animal is observed every 30 minutes for 4 to 5 hours, using RUBIN's score method. The activity of the product is determined by comparison with the result obtained with the treated control batch. The inhibition of blepharospasm is marked from 0 to +++.

[2] = system: narcosis produced by hexobarbital; assay: Modification of narcosis produced by hexobarbital; type: in vivo; conditions: Mus musculus, 0.5 h, mice, half an hour before hexobarbital 70 mg/kg, read-out: Narcosis potentialisation T (percentage increase in sleeping time induced by hexobarbital); for change in vivo at 100 mg/kg: 100 mg/kg IP; for change in vivo at 200 mg/kg: 200 mg/kg IP
Experimental: Mice, each weighing about 20 g, received the product under investigation by the intraperitoneal route. Half an hour later sodium hexobarbital was injected by the same route at a dosage of 70 mg/kg.
The animals were placed on a hot plate kept at a constant temperature of 27° C. It is considered that sleep is established when a mouse, placed in the dorsal decubitus, is incapable of turning over and standing on its paws.
The narcosis potentialisation is evaluated by the percentage increase in sleeping time induced by hexobarbital (T).

[3] = system: attack caused by pentetrazol; assay: Anti-convulsant action: attack caused by pentetrazol; type: in vivo; conditions: mice, 30 min before pentetrazol 125 mg/kg IP
Experimental: A convulsive attack is caused by pentetrazol which, when injected into mice intraperitoneally at a dosage of 125 mg/kg, produces 100% mortality in 5 to 7 minutes.
Mice, each weighing about 20 g, are given the product being studied intraperitoneally, thirty minutes before the administration of pentetrazol.

[4] = Toxicity: LD50 in mice, intraperitoneal route (Log-Probits method of Miller and Tainter); conditions: mouse, in vivo, IP
Experimental: The LD50 of the products was measured in mice by the intraperitoneal route in accordance with the "Log-Probits" method of Miller and Tainter (Proc. Soc. Exptl. Biol. Med. 1944; 57, 261-264).

[5] = system: epileptic attack by electric shock; assay: Anti-convulsant action: electric shock; type: in vivo; conditions: Rattus norvegicus, 0.5 h, male rats, 30 min before 30 volts for 0.5 second, read-out: Electric shock: percentage protection (P); for responders at 100 mg/kg: 100 mg/kg IP; for responders at 200 mg/kg: 200 mg/kg IP
Experimental: The application of an electric current of 30 volts for 0.5 second to the cerebral hemispheres produces an epileptic attack.
Male rats each weighing 180 to 200 g receive intraperitoneally the solvent or the product being investigated. Thirty minutes later the animals are subjected to electric shocks. It is noted whether the attack is complete or incomplete, and the percentage protection (P) conferred by the product administered is determined.

central nervous system = assay: Activity on the central nervous system (overall conclusion of the pharmacological tests); type: in vivo; conditions: conclusion in words
Description: This was investigated by observing the behaviour of animals, by studying the modifications in narcosis produced by hexobarbital and studying the anti-convulsant power.

[6] = Remarks on the hydrochloride (Table I); type: physicochemical; conditions: hydrochloride column of Table I
[7] = Mus musculus, 0.5 h, 200 mg/kg IP, read-out: Pentrazole: percentage protection (P)

CC(CN1CCN(C)CC1)C(O)C=Cc1ccc2c(c1)OCO2 (centres unmarked) [compound 1202]
Inhibition of blepharospasm caused by reserpine ([1]; 25 mg/kg IP): 0 | change in vivo at 25 mg/kg ([2]; 25 mg/kg IP): 5% | responders at 25 mg/kg ([3]; Mus musculus, 0.5 h, 25 mg/kg IP, read-out: Pentrazole: percentage protection (P)): 10% | Pentrazole: time of death as multiple of that (t) of the control group ([3]; 25 mg/kg IP): 2 t × | LD50 [4]: 250 mg/kg | responders at 25 mg/kg ([5]; 25 mg/kg IP): 10%

CC(C)=CCCC(O)C=Cc1ccc2c(c1)OCO2 (centres unmarked) [compound 999]
Inhibition of blepharospasm caused by reserpine ([1]; 50 mg/kg IP): 0 | change in vivo at 100 mg/kg [2]: 201% | responders at 100 mg/kg ([3]; Mus musculus, 0.5 h, 100 mg/kg IP, read-out: Pentrazole: percentage protection (P)): 0% | Pentrazole: time of death as multiple of that (t) of the control group ([3]; 100 mg/kg IP): 5 t × | LD50 [4]: 1000 mg/kg | responders at 100 mg/kg [5]: 90%

CC(CN1CCN(C)CC1)C(=O)C=Cc1ccc2c(c1)OCO2 (centres unmarked) [compound 1201]
Inhibition of blepharospasm caused by reserpine ([1]; 7.5 mg/kg IP): ± | change in vivo at 7.5 mg/kg ([2]; 7.5 mg/kg IP): 17% | responders at 7.5 mg/kg ([3]; Mus musculus, 0.5 h, 7.5 mg/kg IP, read-out: Pentrazole: percentage protection (P)): 0% | Pentrazole: time of death as multiple of that (t) of the control group ([3]; 7.5 mg/kg IP): 2 t × | LD50 [4]: 75 mg/kg | responders at 7.5 mg/kg ([5]; 7.5 mg/kg IP): 10%

O=C(C=Cc1ccc2c(c1)OCO2)C1CCCCC1 [compound 1036]
change in vivo at 200 mg/kg [2]: 135% | responders at 200 mg/kg [3, 7]: 10% | Pentrazole: time of death as multiple of that (t) of the control group ([3]; 200 mg/kg IP): 2.6 t × | LD50 [4]: 2000 mg/kg | responders at 200 mg/kg [5]: 0%

OC(C=Cc1ccc2c(c1)OCO2)C1CCCCC1 (centres unmarked) [compound 1037]
change in vivo at 100 mg/kg [2]: 225% | LD50 [4]: 1000 mg/kg | responders at 100 mg/kg [5]: 0%

CC(C)=CC(=O)C=Cc1ccc2c(c1)OCO2 [compound 1003]
Inhibition of blepharospasm caused by reserpine ([1]; 200 mg/kg IP): 0 | change in vivo at 200 mg/kg [2]: 223% | responders at 200 mg/kg [3, 7]: 0% | Pentrazole: time of death as multiple of that (t) of the control group ([3]; 200 mg/kg IP): 15 t × | LD50 [4]: 2000 mg/kg | responders at 200 mg/kg [5]: 0%

CC(C)=CCCC(=O)C=Cc1ccc2c(c1)OCO2 [compound 998]
Inhibition of blepharospasm caused by reserpine ([1]; 200 mg/kg IP): 0 | change in vivo at 200 mg/kg [2]: 490% | responders at 200 mg/kg [3, 7]: 0% | LD50 [4]: 2000 mg/kg | responders at 200 mg/kg [5]: 30%

OC(C=Cc1ccc2c(c1)OCO2)CN1CCOCC1 (centres unmarked) [compound 997]
Inhibition of blepharospasm caused by reserpine ([1]; 50 mg/kg IP): +++ | change in vivo at 50 mg/kg ([2]; 50 mg/kg IP): 0% | responders at 50 mg/kg ([3]; Mus musculus, 0.5 h, 50 mg/kg IP, read-out: Pentrazole: percentage protection (P)): 0% | Pentrazole: time of death as multiple of that (t) of the control group ([3]; 50 mg/kg IP): 2 t × | Usefulness as anti-depressants (central nervous system): particularly useful as anti-depressants | LD50 [4]: 500 mg/kg | responders at 50 mg/kg ([5]; 50 mg/kg IP): 60%

CC(CN1CCOCC1)C(O)C=Cc1ccc2c(c1)OCO2 (centres unmarked) [compound 1156]
Inhibition of blepharospasm caused by reserpine ([1]; 60 mg/kg IP): 0 | change in vivo at 60 mg/kg ([2]; 60 mg/kg IP): 79% | responders at 60 mg/kg ([3]; Mus musculus, 0.5 h, 60 mg/kg IP, read-out: Pentrazole: percentage protection (P)): 10% | Pentrazole: time of death as multiple of that (t) of the control group ([3]; 60 mg/kg IP): 1.6 t × | LD50 [4]: 600 mg/kg | responders at 60 mg/kg ([5]; 60 mg/kg IP): 50%

O=C(C=Cc1ccc2c(c1)OCO2)CN1CCOCC1 [compound 996]
Inhibition of blepharospasm caused by reserpine ([1]; 75 mg/kg IP): + | change in vivo at 75 mg/kg ([2]; 75 mg/kg IP): 106% | responders at 75 mg/kg ([3]; Mus musculus, 0.5 h, 75 mg/kg IP, read-out: Pentrazole: percentage protection (P)): 0% | Usefulness as anti-depressants (central nervous system): particularly useful as anti-depressants | LD50 [4]: 750 mg/kg | responders at 75 mg/kg ([5]; 75 mg/kg IP): 50%

CC(C(O)C=Cc1ccc2c(c1)OCO2)N1CCOCC1 (centres unmarked) [compound 1340]
responders at 40 mg/kg ([3]; Mus musculus, 0.5 h, 40 mg/kg IP, read-out: Pentrazole: percentage protection (P)): 10% | LD50 [4]: 400 mg/kg | responders at 40 mg/kg ([5]; 40 mg/kg IP): 10%

CC(C(=O)C=Cc1ccc2c(c1)OCO2)N1CCOCC1 (centres unmarked) [compound 1321]
Inhibition of blepharospasm caused by reserpine ([1]; 85 mg/kg IP): 0 | change in vivo at 85 mg/kg ([2]; 85 mg/kg IP): 227% | responders at 85 mg/kg ([3]; Mus musculus, 0.5 h, 85 mg/kg IP, read-out: Pentrazole: percentage protection (P)): 20% | LD50 [4]: 850 mg/kg | responders at 85 mg/kg ([5]; 85 mg/kg IP): 50%

OC(C=Cc1ccc2c(c1)OCO2)CCCN1CCCCC1 (centres unmarked) [AB 754]
Hygroscopicity of hydrochloride [6]: hygroscopic
